Test results as given in the supplement of paper PMC11061612.

Columns and labels:
Assay in all cases: combination Emax (second highest fraction inhibited in the dose matrix, 72 h); higher = more inhibition; extreme values may be limits of the assay
COLO-829 (Melanoma) = tested on: COLO-829 (Melanoma)
Method in brief: (§1)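 Cell lines in DMEM/F12 or RPMI with 10% FBS were plated in 1536-well plates, held 24 hours at 37°C, 5% CO2, then given two-drug dose matrices for 72 hours (DMSO typically 0.2%). Viability was read by CellTiter-Glo 2.0 luminescence and scaled as inhibition from 0 (vehicle wells) to 1 (blank wells). Combination Emax is the second-highest inhibition in the matrix; Bliss excess is observed combination effect minus expected EA + EB − EA·EB, EA and EB being single-agent effects.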

[1] = tested on: KARPAS-231 (B-Cell Non-Hodgkin's Lymphoma)
Method in brief: as §1

[2] = tested on: UMC-11 (Other Solid Carcinomas)
Method in brief: as §1

[3] = tested on: LB771-HNC (Head and Neck Carcinoma)
Method in brief: as §1

[4] = tested on: OVCAR-8 (Ovarian Carcinoma)
Method in brief: as §1

[5] = tested on: CTB-1 (B-Cell Non-Hodgkin's Lymphoma)
Method in brief: as §1

[6] = tested on: 639-V (Bladder Carcinoma)
Method in brief: as §1

Structure (SMILES): CN(CCO)CC[C@H](CSc1ccccc1)Nc1ccc(S(=O)(=O)NC(=O)c2ccc(N3CCC([C@@H](O)c4ccccc4-c4ccc(Cl)cc4)CC3)cc2)cc1S(=O)(=O)C(F)(F)F [AZD4320] + C[C@@H](Nc1cc(F)cc(F)c1)c1cc(C(=O)N(C)C)cc2c(=O)cc(N3CCOCC3)oc12 [AZD8186] (first compound max 1 µM, 7x7, partner max 3 µM)
- combination Emax (COLO-829 (Melanoma)): 0.277
- combination Emax [1]: 1
- combination Emax [2]: 0.375
- combination Emax [3]: 0.264
- combination Emax [4]: 0.57
- combination Emax [5]: 0.669
- combination Emax [6]: 1
